What is called ΔTm is the shift of the melting midpoint relative to a reference.

The results in this text go back to PMC5382548 (Scientific Reports, 2015).

Experiment [1] has as its system UTR-2 (RNA, G4) UGUGGGAGGGGCGGGUCUGGG
Briefly: FRET melting. Particulars: 60 mM K+; K-cacodylate pH 7.4; 0.2 μM RNA, 1 μM compound; SD ≤ 0.2.

Experiment [2] concerns UTR-1 G4 in the 5′UTR of KRAS mRNA. As to the kind of experiment: FRET melting assay, UTR-1 RNA G4. It is filed as binding. Particulars: G4 0.2 μM, ligand 1 μM. The procedure: (§1) Two compounds 2d and 3e were selected and evaluated for their ability to stabilize the 32-mer sequence in the NHE of the human KRAS promoter (KRAS32R)[12], two G4 motifs in the 5′UTR of KRAS mRNA (UTR-1 and UTR-2)[24] and a 21-mer DNA G4 from the human telomeric sequence (F21T). The KRAS32R sequence has been described as forming two G4 structures which exist in equilibrium. One sequence folds into a G4 (Q1) with a Tm of ~55°C that is disrupted on increasing the temperature and then, the full-length 32-mer sequence folds into a new G4 (Q2, Tm of ~72°C)[13]. In our assay, the KRAS32R sequence (in the presence or absence of IQcs) folded in a single G4 structure (Tm ≈ 54°C), as shown by the single inflection for the first derivative of the FRET melting data (Sup. Inf.; Figure S4). This monophasic behaviour was also observed in the presence of TMPyP4[13].
(§2) Oligonucleotide sequences were purchased from Eurofins MWG Synthesis GmbH, Germany or STAB VIDA Genomics Lab, Caparica, Lisbon, Portugal. […]
(§3) The ability of indolo[3,2-c]quinolines to stabilize DNA sequences was investigated using a Fluorescence Resonance Energy Transfer (FRET) assay as reported elsewhere.

Another experiment has as its system KRAS32R G4. Briefly: FRET melting assay, KRAS32R G4. It is filed as binding, human. The following applies: G4 0.2 μM, ligand 1 μM. The procedure:
as §1, §2, §3

For experiment [3], the system named is 26ds (ds26) (DNA, duplex) CAATCGGATCGAATTCGATCCGATTG
As to the kind of experiment: spectrofluorimetric titration, one-site Hill slope fit. Particulars: 60 mM K+, K-cacodylate pH 7.4, 25 °C, 1 μM compound, apparent, SD ≤ 0.2 × 10^6.

In experiment [4] the test system is KRAS32R (DNA, G4) AGGGCGGTGTGGGAAGAGGGAAGAGGGGGAGG
As to the kind of experiment: FRET melting. Particulars: 60 mM K+; K-cacodylate pH 7.4; 0.2 μM DNA, 1 μM compound; SD ≤ 0.2.

In the case of `CCN(CC)CCCNc1ccc2c(c1)c1[nH]c3ccccc3c1c[n+]2C` [2d], the ΔTm in experiment [1] was found to be 2.0 °C; in experiment [4], 10.7 °C. Also, the “ΔTm UTR-1” value in experiment [2] was 5.1 °C. Also, in the experiment with KRAS32R G4, the “ΔTm KRAS32R” value was found to be 10.7 °C. In experiment [3] (Hill 1.5), the Ka is 2.8e+06 M⁻¹.
Regarding `CCN(CC)CCCNc1ccc2c(c1)[nH]c1c2c[n+](C)c2ccc(NCCCN(CC)CC)cc12.[Cl-]` [3e], the ΔTm stood at 9.9 °C in experiment [1] and 17.0 °C in experiment [4]. Moreover, the “ΔTm UTR-1” value in experiment [2] is 15.7 °C. Besides, in the experiment on KRAS32R G4, the “ΔTm KRAS32R” value came to 17.0 °C. The Ka in experiment [3] (Hill 2.5) is 3.2e+06 M⁻¹.
